Experimental data published in paper PMC6212778, “Site-specific amino acid substitution in dodecameric peptides determines the stability and unfolding of c-MYC quadruplex promoting apoptosis in cancer cells” (Nucleic Acids Research, 2018).
pKd: −log10 of the molar value.

Legend:
[1] = test system: native c-MYC quadruplex (Pu27); test: ITC of peptides with native c-MYC quadruplex Pu27 in potassium phosphate buffer; assay type: binding, human; settings: for K A / pKd / ΔG (binding energy) / ΔH (binding enthalpy) / ΔS (entropy): 25°C, 20 μM peptide in cell, 500 μM Pu27 in syringe, 10 mM potassium phosphate, 0.1 M KCl, pH 7.0, one-site model
Protocol: The putative wild-type and truncated G-quadruplex forming sequences (Table 2 and Supplementary Table S1), located at the upstream of c-MYC promoter are reconstituted in 10 mM Potassium Phosphate buffer (pH 7.0) having 100 mM potassium chloride (KCl). The sequences are allowed to evolve G-quadruplex structure in solution by annealing at 95°C followed by gradual cooling. (Supplementary information Section 1).
Thermodynamic attributes of the interaction profiles between peptides and putative quadruplex sequences are analysed by ITC using iTC200 Microcalorimeter at 25°C. Synthetic peptides (FK13, KR12A, KR12B, KR12C, KR12D and KR12E) are diluted to 20 μM in 10 mM Potassium phosphate buffer (10 mM K2HPO4 + 10 mM KH2PO4) containing 0.1 M KCl (pH 7.0). Syringe is filled with 500 μM quadruplex sequences present in the upstream promoter regions of c-MYC (Pu27, Pu19, and Myc22), BCL-2 (Pu30), VEGF-A (Pu22), KRAS (Pu32) oncogenes, and telomere (Tel26) dissolved into the same buffer. We also carried out the experiment for KR12C and Pu27 using MCF-7 nuclear extract as the solvent to mimic the cellular microenvironment and impart macromolecular crowding during binding events. Same concentration of oligonucleotides is injected into the identical buffer or in nuclear extract without peptides to normalize the heat of dilution of peptide-quadruplex association to that of the control before curve-fitting. Oligonucleotides are injected 20 times at an interval of 150 s into the calorimeter cell having the peptides to achieve binding saturation. The heat of reaction per injection (μcal/s) is determined by integration of the peak areas using in-built Origin 7.0 software that provides the best-fit values of enthalpy (ΔH) and entropy (ΔS) of binding, the binding stoichiometry (n), and dissociation constant (Kd) (Supplementary Tables S5(a), S5(b) and S5(c)). Data points are further simulated with ‘one-site’ binding modes (Supplementary information Section 1).

[2] = test system: c-MYC promoter (Pu27-GQ) in MCF-7 cells; test: Dual-luciferase assay, c-MYC promoter with Pu27-GQ; assay type: cell-based, human; settings: for c-MYC promoter activity: MCF-7, 24 h, peptide 0–60 μM; for c-MYC promoter activity, fold repression: MCF-7, 24 h peptide treatment, 60 μM, Renilla/firefly normalised
Protocol: (§1) MCF-7 cells are sub-cultured into 24-well microtiter plates at a cell density of 1 × 10^5 cells/well. Reporter constructs (c-MYC, BCL-2, KRAS and VEGF-A) (500 ng) with and/or without the G-quadruplex scaffolds triggering the expression of Renilla luciferase are co-transfected with 50 ng of pGL3-control vectors (Promega) (used as internal control), encoding firefly luciferase into MCF-7 cells using Lipofectamine® 3000 transfection reagent (Thermo-Fisher Scientific) following manufacturer's recommendations (Supplementary information Section 1). Twenty four hours post-transfection, cells are treated with peptides (FK13, KR12A, KR12B, KR12C, KR12D and KR12E) at an increasing concentration gradient.
(§2) Dual-luciferase assays are performed to examine the intracellular selectivity of peptides for c-MYC quadruplex isomers (Pu27, Myc22 and Pu19) over other oncogenic quadruplexes (BCL-2, VEGF-A and KRAS) of different topologies. The role of peptide-quadruplex complex in oncogene promoter activation is investigated in contrast to the GQ-null promoter constructs into MCF-7 cells ([67]). After 24 h of peptide treatment, cells are washed and lysed into 100 μl 1× Passive lysis buffer (PLB) for 15 min at room temperature. Renilla and firefly Luciferase activities in 25 μl lysate are quantified by Dual-Luciferase® reporter assay system (Promega) as per manufacturer's recommendations. Renilla luciferase enzyme activity is normalized to that of the firefly luciferase activity and luminescence of the peptide-treated samples are normalized to the untreated ones, which yield the fold induction values for Renilla activities by different quadruplex structures in presence and absence of synthetic peptides. Luminescence of each sample is detected in GloMax® 20/20 Single-Tube Luminometer (Promega) in triplicates and averaged from three independent experiments.

[3] = test system: BCL-2 promoter (BCL-2-GQ) in MCF-7 cells; test: Dual-luciferase assay, BCL-2 promoter with BCL-2-GQ; assay type: cell-based, human; settings: MCF-7, 24 h, peptide 0–60 μM
Protocol: as §1, §2

[4] = test system: RNAPII at c-MYC promoter in MCF-7 cells; test: ChIP, RNA polymerase II occupancy at c-MYC promoter; assay type: cell-based, human; settings: MCF-7, 24 h, ChIP-qPCR versus IgG control
Protocol: Chromatin immunoprecipitation studies are conducted to monitor the promoter occupancies of different transcription factors (Sp1, NM23-H2 and Nucleolin) and RNA polymerase II (RNAPII) on the region encompassing c-MYC-NHE III1 ([69]). We have grown MCF-7 cells in 10-cm^2 culture flask at a density of 1 × 10^6 cells per well and treated with the synthetic peptides (FK13, KR12A, KR12B, and KR12C) for 24 hours. Cells are cross-linked with 1% formaldehyde at room temperature for 10 min and the reaction is stopped by 0.125 M glycine at room temperature for 10 min. Fixed cells are lysed and sonicated to yield DNA fragments of 200–500 bp. ChIP-grade antibodies (NM23-H2 (L-15) Antibody (sc-14790, Santa Cruz), and Anti-Nucleolin antibody [4E2]-ChIP Grade (Abcam)), Anti Sp1 antibody (Sigma), and Rpb1 (RNAPII subunit b1) CTD (C-terminal domain) 4H8 antibody are added to the sonicated chromatin and incubated overnight at 4°C. Then, 10 μl protein A magnetic beads (Dynal, Invitrogen), previously washed in RIPA buffer are added to the samples and bead–protein complexes are washed thrice with RIPA buffer and twice with TE buffer. The genomic DNA is eluted for 2 h at 68°C in complete elution Buffer (20 mM Tris, pH 7.5, 5 mM EDTA, 50 mM NaCl, 1% SDS and 50 μg/ml proteinase K) and further combined with the DNA eluted from second elution for 10 min at 68°C in 100 μl of elution buffer (20 mM Tris, pH 7.5, 5 mM EDTA and 50 mM NaCl). ChIP-isolated DNA is purified using MinElute Purification kit (Qiagen) and is amplified by PCR (Polymerase Chain Reaction) reactions using forward and reverse primers ([70]) (Supplementary Table S4) specific to the quadruplex-enriched regions at c-MYC promoter and Phusion® High-Fidelity PCR Kit (NEB). Anti-rabbit IgG is employed for mock immunoprecipitation (Negative control).

[5] = potassium phosphate buffer pH 7.0

Substance	K A [1]	pKd [1]	ΔG (binding energy) [1]	ΔH (binding enthalpy) [1]	ΔS (entropy) [1]	c-MYC promoter activity [2]	BCL-2 promoter activity [3]	RNAPII occupancy at c-MYC promoter [4]	c-MYC promoter activity, fold repression [2]	fold higher binding ΔH for Pu27 association compared to KR12B and KR12D [1, 5]	times higher affinity for Pu27 compared to KR12B and KR12D [1, 5]
N – KRIVKRIKKWLR – C [KR12B, dodecameric mutant peptide derived from FK13 / LL37]	26800 M⁻¹	4.43	-6.18 kcal/mol	-137.3 kcal/mol	−440 cal/mol/deg	selectively attenuated	inverse regulation	significantly depleted	–	–	–
N – KRIVQRIKKWLR – C [KR12A, dodecameric mutant peptide derived from FK13 / LL37]	16200 M⁻¹	4.21	-6.44 kcal/mol	-72 kcal/mol	−220 cal/mol/deg	–	significantly downregulate	depleted RNAPII occupancy	~2 fold	–	–
N – KRIVKLIKKWLR – C [KR12C]	124000 M⁻¹	5.09	-6.974 kcal/mol	-47.8 kcal/mol	−137 cal/mol/deg	selectively attenuated	no significant impact	significantly depleted	–	~2 fold	~5 times
N – FKRIVQRIKDFLR – C [FK13]	28900 M⁻¹	4.46	-5.982 kcal/mol	-77.8 kcal/mol	−241 cal/mol/deg	–	significantly downregulate	did not significantly altered	~2 fold	–	–
